experiment: in vitro; details: human, hela cells, % viability

Structure (SMILES) | viability at 28.5 h, 10 µM [%]
CC(NC(=O)N1CCCN(Cc2ccccn2)CC1)c1cnn(C)c1 (stereo not drawn) [CBK307537] | 102
CC(C)CCN1CCn2nc(CNc3cnccn3)cc2C1 [CBK307540] | 85.8
CCc1nc2c(N3CCCn4nc(C(O)C5CC5)cc4C3)ncnc2o1 (stereo not drawn) [CBK307543] | 78.6
CCCn1ncnc1C(C)NC(=O)Nc1ccnn1CC(C)C (stereo not drawn) [CBK307545] | 116
COc1cccc(C2CC(=O)Nc3c2c(=O)nc(SC)n3C)c1 (stereo not drawn) [CBK307546] | 104
CCCNS(=O)(=O)c1cc2c3c(c1)c(C)cc(=O)n3CCC2 [CBK307547] | 97.1
CO[C@@]12CC[C@@H](OCC(=O)O)C[C@@H]1N(Cc1ccccc1C)CC2 [CBK307548] | 104
CC(=O)N1CCN(C(=O)Cn2ccc3ccccc32)CC(O)C1 (stereo not drawn) [CBK307552] | 98.1
COc1nccc(N2CCCC(CO)(CC3CC3)C2)c1C#N (stereo not drawn) [CBK307553] | 89.3
Cc1cc(C)n(CCn2cc(-c3ncc[nH]3)nn2)c(=O)n1 [CBK307554] | 83.1
COC(=O)Cn1c(C(C)(C)C)cn2c3c(=O)n(C)c(=O)n(C)c3nc12 [CBK307555] | 84.3
Cc1cnn(C(C)C(=O)N2CCc3c(nc(N(C)C)nc3N(C)C)C2)c1 (stereo not drawn) [CBK307556] | 109
COc1cncc(C(NC(=O)Cn2ccccc2=O)[C@H]2C[C@@H](O)C2)c1 (stereo partly drawn) [CBK307557] | 92.5
O=C(c1cnc[nH]1)N1CCn2nc(C(O)Cc3ccccc3)cc2C1 (stereo not drawn) [CBK307558] | 109
Cc1c(C)n(Cc2ccco2)c2ncnc(NC(C)C(=O)O)c12 (stereo not drawn) [CBK307561] | 106
Cc1c(C)n(Cc2ccco2)c2ncnc(NCCC(=O)O)c12 [CBK307564] | 86.8
CCOCCn1c(=O)c2c(nc3oc(C(C)(C)C)cn32)n(C)c1=O [CBK307567] | 103
Cc1c(C)n(Cc2ccco2)c2ncnc(SCCC(=O)O)c12 [CBK307569] | 105
CNC(=O)CN(C)C(=O)c1coc(COc2ccc3sc(C)nc3c2)n1 [CBK307571] | 83.1
COc1cccc(C(=O)NCCC(=O)N2CCc3ccccc3C2)c1 [CBK307575] | 84.3
COc1ccc(CNC(=O)c2cc(S(=O)(=O)N3CCCC3)cs2)cc1 [CBK307576] | 93.6

Structure (SMILES) | viability at 28.5 h, 10 µM [%]
NC(=O)c1c(NC(=O)NCc2cccnc2)sc2c1CCC2 [CBK307578] | 70.3
Cn1cnc2cc(NC(=O)NCCN3CCCC(CO)C3)ccc21 (stereo not drawn) [CBK307582] | 107
O=C(NCCc1ccccc1)C1CCN(C(=O)c2cccc(F)c2)CC1 [CBK307583] | 82.2
Cn1cnnc1CCC(=O)NCC1CCN(c2ccccc2F)C1 (stereo not drawn) [CBK307587] | 76.5
Cc1nnc(NC(=O)C2CCN(C(=O)c3cccc(F)c3)CC2)s1 [CBK307588] | 93.2
COc1ccc(CNC(=O)c2cc(S(=O)(=O)N3CCCCC3)cs2)cc1 [CBK307590] | 85.9
CCOC(=O)c1c(NC(=O)NCc2ccncc2)sc2c1CCC2 [CBK307591] | 81.6
c1cnc(NCc2cc3n(n2)CCN(CC2CCCCC2)C3)cn1 [CBK307592] | 80
CC(C)n1cc(C(=O)NCc2cccnc2N(C)C2CCCCC2)cn1 [CBK307593] | 105
Cc1c(C)n(Cc2ccco2)c2ncnc(N3CCC(C(=O)O)CC3)c12 [CBK307599] | 99.1
CCCCc1ccc(-c2nccn2CC2CN(C(C)=O)CCO2)s1 (stereo not drawn) [CBK307600] | 110
Cc1nc(N2CCOCC2)cc(N2CCN(C(=O)C3CCCC3)CC2)n1 [CBK307602] | 87.5
Cc1ccc2c(c1)C(NC(=O)C1CCN(S(C)(=O)=O)CC1)CC(C)(C)O2 (stereo not drawn) [CBK307604] | 109
COCC1(C(=O)N2CC(=O)N(c3ccc(C)cc3)CC2C)CCC1 (stereo not drawn) [CBK307606] | 89.1
CCCNC(=O)c1ccc(NC(=O)NC(CC)c2ccnn2C)c(C)c1 (stereo not drawn) [CBK307608] | 104
Cc1cc(C)n(Cc2cc(C(=O)NCC(C)Oc3cccnc3)n[nH]2)n1 (stereo not drawn) [CBK307609] | 85.9
COCCNC(=O)c1cc2n(n1)C(C(F)(F)F)CC(c1ccccc1)N2 (stereo not drawn) [CBK307610] | 114
CSc1ncc(CNC(=O)C2CCOc3ccccc3C2)n1C (stereo not drawn) [CBK307611] | 82.5
Cc1scnc1CN1CCn2nc(C(O)Cc3ccccc3)cc2C1 (stereo not drawn) [CBK307612] | 90.9
Cc1cc(C)n(-c2ccc3nnc(CCC(=O)O)n3n2)n1 [CBK307616] | 97
CCCc1cc(C(=O)N2CCNCC2C(=O)N2CCN(C)CC2)ccn1 (stereo not drawn) [CBK307619] | 97.5

Structure (SMILES) | viability at 28.5 h, 10 µM [%]
Cc1c(-c2cccc(C(=O)N(CCO)C3CCS(=O)(=O)C3)c2)cnn1C (stereo not drawn) [CBK307621] | 86.5
Cc1nc(NC(=O)Cn2nc(N3CCSCC3)ccc2=O)sc1C [CBK307622] | 98.3
O=C(Cn1nc(N2CCSCC2)ccc1=O)Nc1ccccc1 [CBK307623] | 97.2
Cc1cc(OCC(=O)N2CCNC(=O)C2)c2c(C)c(C)c(=O)oc2c1 [CBK307624] | 94.7
CC(=O)c1cccc(NC(=O)Cn2nc(N3CCSCC3)ccc2=O)c1 [CBK307625] | 102
CCOC(=O)c1cnc2ccc(Cl)cc2c1N1CCOCC1 [CBK307627] | 99.2
Cc1cc(C)n(-c2ccc3nnc(CCCC(=O)O)n3n2)n1 [CBK307630] | 87.1
COc1ccc2c(c1)C(NC(=O)C1CCCN(C)C1)CC(C)(C)O2 (stereo not drawn) [CBK307631] | 113
CCOc1ccc(NC(=O)N(CCO)Cc2nccn2C)cc1C#N [CBK307634] | 82.6
COCCN1CCN(C(=O)NCCc2c(C)[nH]c3ccc(Cl)cc23)CC1 [CBK307637] | 85
CCn1nc(CO)c2c1CCN(CC(=O)NCc1cccs1)C2 [CBK307638] | 92.8
Cc1cccn2c(CN3CCC(O)CC3)c(C(=O)N3CCCCC3)nc12 [CBK307639] | 104
CN1CCN(CC2(Cn3ccnc3-c3ccc(C(=O)O)cc3)CC2)CC1 [CBK307641] | 75.1
CSc1cccc(CN2C[C@H]3CN(C(=O)C4CCC4)C[C@@]3(C(=O)O)C2)c1 [CBK307645] | 88.4
COc1cncc(C(NC(=O)c2ccc3c(c2)CCC3)[C@H]2C[C@H](O)C2)c1 (stereo partly drawn) [CBK307646] | 105
Cc1cc(C)n(CC(=O)N[C@H]2CC[C@H]2N)c(=O)n1 [CBK307647] | 91.9
Cc1ncccc1OC1(C(=O)NCc2cn3c(n2)SCC3)CCNCC1 [CBK307649] | 103
Cc1nc(CCNC(=O)N(Cc2cnn(C)c2)C2CC2)nc2c1CCC2 [CBK307650] | 86.1
Cc1cc(=O)[nH]c(CCNc2cc([C@H]3C[C@@H](N)C3)nc(C3CC3)n2)n1 [CBK307651] | 103
CN1CCCCCC1c1nc(-c2ccccc2)nn1CCCO (stereo not drawn) [CBK307653] | 95.9
CCOC(=O)C1(Cc2ccc(F)cc2F)CCCN(S(=O)(=O)CC)C1 (stereo not drawn) [CBK307655] | 92.6

Structure (SMILES) | viability at 28.5 h, 10 µM [%]
CCCN1CC2(CCN(Cc3nccn3C)CC2)CC1C(=O)O (stereo not drawn) [CBK307658] | 83.2
Cc1ccc(-c2noc(C(C)NC(=O)C3(Cn4ccnc4)CC3)n2)cc1 (stereo not drawn) [CBK307661] | 113
CCCn1cnnc1CN(C)C(=O)NCCc1nc2ccccc2s1 [CBK307663] | 98.2
CCCN1CC(NS(=O)(=O)c2ccc3oc(=O)n(C)c3c2)CC1=O (stereo not drawn) [CBK307664] | 92.6
CC(c1ccncn1)N(C)C(=O)NCc1cccc(CN(C)C)c1 (stereo not drawn) [CBK307667] | 89.9
CCc1nc(CCn2ccc3nc(OC)c(C#N)cc3c2=O)no1 [CBK307668] | 94.1
Cn1ncnc1CCNC(=O)N1CCCN(Cc2cccs2)CC1 [CBK307670] | 95.8
CN(CC1COCCO1)C(=O)c1cc(Cn2ccc3ccccc32)[nH]n1 (stereo not drawn) [CBK307673] | 111
Cc1nc(C2CC(O)C2)cc(N2CCC(C(=O)N3CCOCC3)CC2)n1 (stereo not drawn) [CBK307675] | 102
COc1nccc(N2CCN(C)C3(CCNC(=O)CC3)C2)c1C#N (stereo not drawn) [CBK307676] | 116
CSc1ncc(C(=O)N2CCN3CCN(C)CC3C2)c(=O)[nH]1 (stereo not drawn) [CBK307677] | 104
O=c1cc(N2CCCCC2)cnn1Cc1nccs1 [CBK307678] | 87.4
Cc1c(C(=O)NC2CCN(c3ncccc3C#N)CC2)ccn1C [CBK307681] | 103
COCCNc1cc(-c2cccc(F)c2C(N)=O)c2cc[nH]c2n1 [CBK307682] | 94.2
Cc1nc2cc(OCc3nc(C(=O)N(CCO)CCO)co3)ccc2s1 [CBK307684] | 89.9
COc1ccc(Cc2nc(C3CC3)n(CC(F)(F)F)n2)cc1 [CBK307686] | 94.9
Cc1ccc2[nH]c(CN3CCC(O)C3)cc(=O)c2c1 (stereo not drawn) [CBK307690] | 91.5
Cn1ncc(N2CCC(CNC(=O)COc3cccc(F)c3)C2)cc1=O (stereo not drawn) [CBK307692] | 87.1
